Values quoted from earlier work, collected in patent US10925890B2, “Use of dextran sulfate” (TX MEDIC AB, priority 2014, dated 2021).

Tested on: angiogenesis
Conditions: cited from earlier work

Substance | Effect on angiogenesis in vivo (Glycobiology 3, 567-573 (1993), Pathophysiology of Haemostasis and Thrombosis 23, 141-149 (1993)) | Effect on angiogenesis (U.S. Pat. No. 5,135,920)
heparin | inhibited angiogenesis | –
dextran sulfate | – | angiostatic
